Assay results as given in patent US11098038B2, “Imidazole-based anticancer agents and derivatives thereof, and methods of making and using same” (The University of Toledo, priority 2017, dated 2021).

Experiments:
NCI-H226 = assay: NCI 60 screen, NCI-H226; type: cell-based; settings: Homo sapiens, Non-Small Cell Lung
Procedure: (§1) The compounds synthesized were tested at the National Cancer Institute (NCI) for anti-proliferative activity in the 60 human tumor cell line assay.

U251 = assay: NCI 60 screen, U251; type: cell-based; settings: Homo sapiens, U-251, CNS
Procedure: as §1

MCF7 = assay: NCI 60 screen, MCF7; type: cell-based; settings: Homo sapiens, Breast
Procedure: as §1

SK-MEL-2 [1] = assay: NCI 60 screen, SK-MEL-2 (first line); type: cell-based; settings: Homo sapiens; Melanoma, SK-MEL-2 (first of two lines so named, r37)
Procedure: as §1

KM12 = assay: NCI 60 screen, KM12; type: cell-based; settings: Homo sapiens, Colon
Procedure: as §1

SNB-75 = assay: NCI 60 screen, SNB-75; type: cell-based; settings: Homo sapiens, CNS
Procedure: as §1

T-47D = assay: NCI 60 screen, T-47D; type: cell-based; settings: Homo sapiens, T47D, Breast
Procedure: as §1

CCRF-CEM = assay: NCI 60 screen, CCRF-CEM; type: cell-based; settings: Homo sapiens, Leukemia
Procedure: as §1

NCI-460 = assay: NCI 60 screen, NCI-460; type: cell-based; settings: Homo sapiens, Non-Small Cell Lung
Procedure: as §1

SW-620 = assay: NCI 60 screen, SW-620; type: cell-based; settings: Homo sapiens, Colon
Procedure: as §1

HOP-62 = assay: NCI 60 screen, HOP-62; type: cell-based; settings: Homo sapiens, Non-Small Cell Lung
Procedure: as §1

HOP-92 = assay: NCI 60 screen, HOP-92; type: cell-based; settings: Homo sapiens, Non-Small Cell Lung
Procedure: as §1

HCC-2998 = assay: NCI 60 screen, HCC-2998; type: cell-based; settings: Homo sapiens, Colon
Procedure: as §1

M14 = assay: NCI 60 screen, M14; type: cell-based; settings: Homo sapiens, Melanoma
Procedure: as §1

UACC-62 = assay: NCI 60 screen, UACC-62; type: cell-based; settings: Homo sapiens, Melanoma
Procedure: as §1

DU-145 = assay: NCI 60 screen, DU-145; type: cell-based; settings: Homo sapiens, Prostatic
Procedure: as §1

OVCAR-3 = assay: NCI 60 screen, OVCAR-3; type: cell-based; settings: Homo sapiens, Ovarian
Procedure: as §1

SF-295 = assay: NCI 60 screen, SF-295; type: cell-based; settings: Homo sapiens, CNS
Procedure: as §1

SK-MEL-2 [2] = assay: NCI 60 screen, SK-MEL-2 (second line); type: cell-based; settings: Homo sapiens; Melanoma, SK-MEL-2 (second of two lines so named, r38)
Procedure: as §1

NCI-322M = assay: NCI 60 screen, NCI-322M; type: cell-based; settings: Homo sapiens, Non-Small Cell Lung
Procedure: as §1

SR = assay: NCI 60 screen, SR; type: cell-based; settings: Homo sapiens, Leukemia
Procedure: as §1

HCT-116 = assay: NCI 60 screen, HCT-116; type: cell-based; settings: Homo sapiens, Colon
Procedure: as §1

OVCAR-5 = assay: NCI 60 screen, OVCAR-5; type: cell-based; settings: Homo sapiens, Ovarian
Procedure: as §1

CAKI-1 = assay: NCI 60 screen, CAKI-1; type: cell-based; settings: Homo sapiens, Renal
Procedure: as §1

UO-31 = assay: NCI 60 screen, UO-31; type: cell-based; settings: Homo sapiens, Renal
Procedure: as §1

MALME-3M = assay: NCI 60 screen, MALME-3M; type: cell-based; settings: Homo sapiens, Melanoma
Procedure: as §1

TK-10 = assay: NCI 60 screen, TK-10; type: cell-based; settings: Homo sapiens, Renal
Procedure: as §1

LOX IMVI = assay: NCI 60 screen, LOX IMVI; type: cell-based; settings: Homo sapiens, Melanoma
Procedure: as §1

RPMI-8226 = assay: NCI 60 screen, RPMI-8226; type: cell-based; settings: Homo sapiens, Leukemia
Procedure: as §1

K-562 = assay: NCI 60 screen, K-562; type: cell-based; settings: Homo sapiens, K562, Leukemia
Procedure: as §1

A498 = assay: NCI 60 screen, A498; type: cell-based; settings: Homo sapiens, Renal
Procedure: as §1

SF-539 = assay: NCI 60 screen, SF-539; type: cell-based; settings: Homo sapiens, CNS
Procedure: as §1

SK-OV-3 = assay: NCI 60 screen, SK-OV-3; type: cell-based; settings: Homo sapiens, Ovarian
Procedure: as §1

COLO 205 = assay: NCI 60 screen, COLO 205; type: cell-based; settings: Homo sapiens, Colon
Procedure: as §1

786-0 = assay: NCI 60 screen, 786-0; type: cell-based; settings: Homo sapiens, Renal
Procedure: as §1

MDA-MB-231/ATCC = assay: NCI 60 screen, MDA-MB-231/ATCC; type: cell-based; settings: Homo sapiens, Breast
Procedure: as §1

UACC-257 = assay: NCI 60 screen, UACC-257; type: cell-based; settings: Homo sapiens, Melanoma
Procedure: as §1

OVCAR-4 = assay: NCI 60 screen, OVCAR-4; type: cell-based; settings: Homo sapiens, Ovarian
Procedure: as §1

SNB-19 = assay: NCI 60 screen, SNB-19; type: cell-based; settings: Homo sapiens, CNS
Procedure: as §1

HS 578T = assay: NCI 60 screen, HS 578T; type: cell-based; settings: Homo sapiens, Breast
Procedure: as §1

NCI-H522 = assay: NCI 60 screen, NCI-H522; type: cell-based; settings: Homo sapiens, Non-Small Cell Lung
Procedure: as §1

IGROV1 = assay: NCI 60 screen, IGROV1; type: cell-based; settings: Homo sapiens, IGROV-1, Ovarian
Procedure: as §1

SF-268 = assay: NCI 60 screen, SF-268; type: cell-based; settings: Homo sapiens, CNS
Procedure: as §1

OVCAR-8 = assay: NCI 60 screen, OVCAR-8; type: cell-based; settings: Homo sapiens, Ovarian
Procedure: as §1

NCI-H23 = assay: NCI 60 screen, NCI-H23; type: cell-based; settings: Homo sapiens, Non-Small Cell Lung
Procedure: as §1

HL-60(TB) = assay: NCI 60 screen, HL-60(TB); type: cell-based; settings: Homo sapiens, Leukemia
Procedure: as §1

SK-MEL-5 = assay: NCI 60 screen, SK-MEL-5; type: cell-based; settings: Homo sapiens, Melanoma
Procedure: as §1

SN12C = assay: NCI 60 screen, SN12C; type: cell-based; settings: Homo sapiens, Renal
Procedure: as §1

EKVX = assay: NCI 60 screen, EKVX; type: cell-based; settings: Homo sapiens, Non-Small Cell Lung
Procedure: as §1

MDA-MB-468 = assay: NCI 60 screen, MDA-MB-468; type: cell-based; settings: Homo sapiens, Breast
Procedure: as §1

MOLT-4 = assay: NCI 60 screen, MOLT-4; type: cell-based; settings: Homo sapiens, Leukemia
Procedure: as §1

RXF393 = assay: NCI 60 screen, RXF393; type: cell-based; settings: Homo sapiens, RXF 393, Renal
Procedure: as §1

BT-549 = assay: NCI 60 screen, BT-549; type: cell-based; settings: Homo sapiens, Breast
Procedure: as §1

MDA-MB-435 = assay: NCI 60 screen, MDA-MB-435; type: cell-based; settings: Homo sapiens, Melanoma
Procedure: as §1

HCT15 = assay: NCI 60 screen, HCT15; type: cell-based; settings: Homo sapiens, HCT-15, Colon
Procedure: as §1

HT29 = assay: NCI 60 screen, HT29; type: cell-based; settings: Homo sapiens, HT-29, Colon
Procedure: as §1

A549/ATCC = assay: NCI 60 screen, A549/ATCC; type: cell-based; settings: Homo sapiens, Non-Small Cell Lung
Procedure: as §1

NCI/ADR-RES = assay: NCI 60 screen, NCI/ADR-RES; type: cell-based; settings: Homo sapiens, Ovarian
Procedure: as §1

ACHN = assay: NCI 60 screen, ACHN; type: cell-based; settings: Homo sapiens, Renal
Procedure: as §1

PC-3 = assay: NCI 60 screen, PC-3; type: cell-based; settings: Homo sapiens, Prostatic
Procedure: as §1

O=C(Cc1ccc(/C=C/C(=O)c2ncc[nH]2)cc1)Nc1ccc(C(F)(F)F)cc1 [Compound 24, (E)-2-(4-(3-(1H-imidazole-2-yl)-3-oxoprop-1-en-1-yl)phenyl)-N-(4-(trifluoromethyl)phenyl) acetamide]
GI50 (NCI-H226): 6.11 µM
GI50 (U251): 1.22 µM
GI50 (MCF7): 0.851 µM
GI50 (SK-MEL-2 [1]): 7.09 µM
GI50 (KM12): 1.11 µM
GI50 (SNB-75): 3.97 µM
GI50 (T-47D): 3.97 µM
melting point: 240.5 °C
GI50 (CCRF-CEM): 1.55 µM
GI50 (NCI-460): 3.6 µM
GI50 (SW-620): 1.35 µM
GI50 (HOP-62): 4.8 µM
GI50 (HOP-92): 4.89 µM
GI50 (HCC-2998): 3.97 µM
GI50 (M14): 2.58 µM
GI50 (UACC-62): 4.47 µM
GI50 (DU-145): 2.13 µM
GI50 (OVCAR-3): 1.09 µM
GI50 (SF-295): 4.08 µM
GI50 (SK-MEL-2 [2]): 5.32 µM
GI50 (NCI-322M): 4.68 µM
GI50 (SR): 0.843 µM
GI50 (HCT-116): 0.694 µM
GI50 (OVCAR-5): 4.89 µM
GI50 (CAKI-1): 4.43 µM
GI50 (UO-31): 2.43 µM
GI50 (MALME-3M): 5.18 µM
GI50 (TK-10): 6.63 µM
GI50 (LOX IMVI): 0.469 µM
GI50 (RPMI-8226): 0.78 µM
GI50 (K-562): 1.24 µM
GI50 (A498): 4.73 µM
GI50 (SF-539): 4.52 µM
GI50 (SK-OV-3): 7.66 µM
GI50 (COLO 205): 5.38 µM
GI50 (786-0): 1.4 µM
GI50 (MDA-MB-231/ATCC): 2.79 µM
GI50 (UACC-257): 7.2 µM
GI50 (OVCAR-4): 5.12 µM
GI50 (SNB-19): 2.79 µM
GI50 (HS 578T): 5.88 µM
GI50 (NCI-H522): 4.87 µM
GI50 (IGROV1): 3.84 µM
GI50 (SF-268): 3.05 µM
GI50 (OVCAR-8): 7.99 µM
GI50 (NCI-H23): 3.42 µM
GI50 (HL-60(TB)): 2.03 µM
GI50 (SK-MEL-5): 5.55 µM
GI50 (SN12C): 1.87 µM
GI50 (EKVX): 5.57 µM
GI50 (MDA-MB-468): 1.77 µM
GI50 (MOLT-4): 2.29 µM
GI50 (RXF393): 3.75 µM
GI50 (BT-549): 2.11 µM
GI50 (MDA-MB-435): 2.87 µM
GI50 (HCT15): 1.04 µM
GI50 (HT29): 1.09 µM
GI50 (A549/ATCC): 6.37 µM
GI50 (NCI/ADR-RES): 8.96 µM
GI50 (ACHN): 6.33 µM
GI50 (PC-3): 2.81 µM
